Laboratory results from patent US6706663B2, “Herbicidal 3-heterocyclic substituted benzisothiazole and benzisoxazole compounds” (Wyeth, priority 2000, dated 2004).

Experiments:
[1] = tested on: ABUTH (Abutilon theophrasti); experiment: Postemergence herbicidal evaluation; format: in vivo, Medic.; conditions: postemergence
Outline: (§1)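 Visual 0–9 injury scores versus control plants, covering stand, vigour, malformation, size, chlorosis and general appearance, taken four to five weeks post-spray and averaged over replicate tests. Plants were sprayed at roughly two weeks old and held on greenhouse benches.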

GALAP (Galium aparine) [2] = experiment: Postemergence herbicidal evaluation; format: in vivo; conditions: postemergence
Outline: as §1

[3] = tested on: IPOHE (Ipomoea hederacea); experiment: Postemergence herbicidal evaluation; format: in vivo, (L.) Jacq.; conditions: postemergence
Outline: as §1

SETVI (Setaria viridis) [4] = experiment: Postemergence herbicidal evaluation; format: in vivo, (L.) Beau; conditions: postemergence
Outline: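 First, seedlings are raised in flats for about two weeks. Next, compound dispersed in 50/50 acetone/water with 0.5% TWEEN 20 is sprayed at 40 psi to deliver about 0.0040–1.000 kg/ha. Plants are then maintained in the greenhouse and rated 0-9 after four to five weeks.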

[5] = tested on: GLXMAW (Soybean, Williams); experiment: Postemergence herbicidal evaluation; format: in vivo, Glycine max, (L.) Merr. cv Williams; conditions: postemergence
Outline: as §1

[6] = tested on: TRZAWR (Wheat, Winter, cv Riband); experiment: Postemergence herbicidal evaluation; format: in vivo, Triticum aestivum; conditions: postemergence
Outline: as §1

[7] = tested on: ABUTH (Abutilon theophrasti); experiment: Preemergence herbicidal evaluation; format: in vivo, Medic.; conditions: rated 4-5 weeks after treatment
[8] = tested on: AMBEL (Ambrosia artemisifolia); experiment: Preemergence herbicidal evaluation; format: in vivo, L.; conditions: rated 4-5 weeks after treatment
Outline: (§2)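 Rating 0–9, visual, vs control; 4–5 wk after spraying seeded cups with compound in aq. acetone; conventional greenhouse care.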

[9] = tested on: CASOB (Cassia obtusifolia); experiment: Preemergence herbicidal evaluation; format: in vivo, L.; conditions: rated 4-5 weeks after treatment
Outline: as §2

[10] = tested on: CHEAL (Chenopodium album); experiment: Preemergence herbicidal evaluation; format: in vivo, L.; conditions: rated 4-5 weeks after treatment
Outline: as §2

GALAP (Galium aparine) [11] = experiment: Preemergence herbicidal evaluation; format: in vivo; conditions: rated 4-5 weeks after treatment
Outline: as §2

[12] = tested on: ECHCG (Echinochloa crus-galli); experiment: Preemergence herbicidal evaluation; format: in vivo, (L.) Beau; conditions: rated 4-5 weeks after treatment
Outline: as §2

SETVI (Setaria viridis) [13] = experiment: Preemergence herbicidal evaluation; format: in vivo, (L.) Beau; conditions: rated 4-5 weeks after treatment
Outline: as §2

ZEAMX (Corn, Field) = experiment: Preemergence herbicidal evaluation; format: in vivo, Zea mays, L.; conditions: rated 4-5 weeks after treatment
[14] = tested on: MOOVA (Monochoria vaginalis); experiment: Flooded paddy, preemergence weed control; format: in vivo, Presl.; conditions: rated 3-4 weeks after treatment, 0-9 rating scale
Outline: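 In this preemergence paddy assay, weed seeds or organs are sown at up to 0.5 cm in silt loam and covered by 1.5–3 cm of water for the full test period. After treatment the pots are kept in a greenhouse, and herbicidal effect is rated 0-9 visually against a control.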

ORYSAT (Rice, Tebonnet) = experiment: Flooded paddy, post-transplant rice tolerance; format: in vivo, Oryza sativa, (L.) Tebonnet; conditions: flooded paddy, post-transplant rice, rated 3-4 weeks after treatment, 0-9 rating scale
Outline: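 Scores (0-9) reflect visual injury relative to untreated plants in flooded silt loam. Each pot held two transplanted ten-day-old seedlings under 1.5 to 3 cm standing water in the greenhouse.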

SMILES: Cn1c(C(F)(F)F)cc(=O)n(-c2ccc3snc(C4OCC(CCl)O4)c3c2)c1=O (stereo not drawn) [Compound 72, 3-[3-[4-(chloromethyl)-1,3-dioxolan-2-yl]-1,2-benzisothiazol-5-yl]-1-methyl-6-(trifluoromethyl)uracil]
- ABUTH herbicidal rating ([1]; rate 0.0320 kg/ha): 9.0
- ABUTH herbicidal rating ([1]; rate 0.0620 kg/ha): 9.0
- GALAP herbicidal rating (GALAP (Galium aparine) [2]; rate 0.0320 kg/ha): 9.0
- GALAP herbicidal rating (GALAP (Galium aparine) [2]; rate 0.0620 kg/ha): 9.0
- IPOHE herbicidal rating ([3]; rate 0.0320 kg/ha): 9.0
- IPOHE herbicidal rating ([3]; rate 0.0620 kg/ha): 9.0
- SETVI herbicidal rating (SETVI (Setaria viridis) [4]; rate 0.0320 kg/ha): 8.0
- SETVI herbicidal rating (SETVI (Setaria viridis) [4]; rate 0.0620 kg/ha): 8.0
- GLXMAW herbicidal rating ([5]; rate 0.0320 kg/ha): 6.5
- GLXMAW herbicidal rating ([5]; rate 0.0620 kg/ha): 8.5
- TRZAWR herbicidal rating ([6]; rate 0.0320 kg/ha): 3.5
- TRZAWR herbicidal rating ([6]; rate 0.0620 kg/ha): 4.5
- Preemergence herbicidal rating ABUTH ([7]; Rate 0.0620 kg/ha): 9.0
- Preemergence herbicidal rating ABUTH ([7]; Rate 0.1250 kg/ha): 9.0
- Preemergence herbicidal rating ABUTH ([7]; Rate 0.2500 kg/ha): 9.0
- Preemergence herbicidal rating AMBEL ([8]; Rate 0.0620 kg/ha): 9.0
- Preemergence herbicidal rating AMBEL ([8]; Rate 0.1250 kg/ha): 9.0
- Preemergence herbicidal rating AMBEL ([8]; Rate 0.2500 kg/ha): 9.0
- Preemergence herbicidal rating CASOB ([9]; Rate 0.0620 kg/ha): 3.0
- Preemergence herbicidal rating CASOB ([9]; Rate 0.1250 kg/ha): 6.5
- Preemergence herbicidal rating CASOB ([9]; Rate 0.2500 kg/ha): 8.0
- Preemergence herbicidal rating CHEAL ([10]; Rate 0.0620 kg/ha): 9.0
- Preemergence herbicidal rating CHEAL ([10]; Rate 0.1250 kg/ha): 9.0
- Preemergence herbicidal rating CHEAL ([10]; Rate 0.2500 kg/ha): 9.0
- Preemergence herbicidal rating GALAP (GALAP (Galium aparine) [11]; Rate 0.0620 kg/ha): 8.0
- Preemergence herbicidal rating GALAP (GALAP (Galium aparine) [11]; Rate 0.1250 kg/ha): 9.0
- Preemergence herbicidal rating GALAP (GALAP (Galium aparine) [11]; Rate 0.2500 kg/ha): 9.0
- Preemergence herbicidal rating ECHCG ([12]; Rate 0.0620 kg/ha): 9.0
- Preemergence herbicidal rating ECHCG ([12]; Rate 0.1250 kg/ha): 9.0
- Preemergence herbicidal rating ECHCG ([12]; Rate 0.2500 kg/ha): 9.0
- Preemergence herbicidal rating SETVI (SETVI (Setaria viridis) [13]; Rate 0.0620 kg/ha): 9.0
- Preemergence herbicidal rating SETVI (SETVI (Setaria viridis) [13]; Rate 0.1250 kg/ha): 9.0
- Preemergence herbicidal rating SETVI (SETVI (Setaria viridis) [13]; Rate 0.2500 kg/ha): 9.0
- Preemergence herbicidal rating ZEAMX (ZEAMX (Corn, Field); Rate 0.0620 kg/ha): 8.0
- Preemergence herbicidal rating ZEAMX (ZEAMX (Corn, Field); Rate 0.1250 kg/ha): 8.5
- Preemergence herbicidal rating ZEAMX (ZEAMX (Corn, Field); Rate 0.2500 kg/ha): 9.0
- herbicidal rating, MOOVA ([14]; rate 0.0080 kg/ha): 0.0
- herbicidal rating, MOOVA ([14]; rate 0.0320 kg/ha): 9.0
- herbicidal rating, MOOVA ([14]; rate 0.1250 kg/ha): 9.0
- herbicidal rating, ORYSAT (rice tolerance) (ORYSAT (Rice, Tebonnet); rate 0.0080 kg/ha): 0.0
- herbicidal rating, ORYSAT (rice tolerance) (ORYSAT (Rice, Tebonnet); rate 0.0320 kg/ha): 7.0
- herbicidal rating, ORYSAT (rice tolerance) (ORYSAT (Rice, Tebonnet); rate 0.1250 kg/ha): 8.0

SMILES: Cn1c(C(F)(F)F)cc(=O)n(-c2ccc3snc(C4OCC(CO)O4)c3c2)c1=O (stereo not drawn) [Compound 73, 3-[3-[4-(hydroxymethyl)-1,3-dioxolan-2-yl]-1,2-benzisothiazol-5-yl]-1-methyl-6-(trifluoromethyl)uracil]
- ABUTH herbicidal rating ([1]; rate 0.0320 kg/ha): 9.0
- ABUTH herbicidal rating ([1]; rate 0.0620 kg/ha): 9.0
- GALAP herbicidal rating (GALAP (Galium aparine) [2]; rate 0.0320 kg/ha): 9.0
- GALAP herbicidal rating (GALAP (Galium aparine) [2]; rate 0.0620 kg/ha): 9.0
- IPOHE herbicidal rating ([3]; rate 0.0320 kg/ha): 9.0
- IPOHE herbicidal rating ([3]; rate 0.0620 kg/ha): 9.0
- SETVI herbicidal rating (SETVI (Setaria viridis) [4]; rate 0.0320 kg/ha): 4.0
- SETVI herbicidal rating (SETVI (Setaria viridis) [4]; rate 0.0620 kg/ha): 8.0
- GLXMAW herbicidal rating ([5]; rate 0.0320 kg/ha): 5.5
- GLXMAW herbicidal rating ([5]; rate 0.0620 kg/ha): 7.5
- TRZAWR herbicidal rating ([6]; rate 0.0320 kg/ha): 3.5
- TRZAWR herbicidal rating ([6]; rate 0.0620 kg/ha): 4.0
- Preemergence herbicidal rating ABUTH ([7]; Rate 0.0620 kg/ha): 9.0
- Preemergence herbicidal rating ABUTH ([7]; Rate 0.1250 kg/ha): 9.0
- Preemergence herbicidal rating ABUTH ([7]; Rate 0.2500 kg/ha): 9.0
- Preemergence herbicidal rating AMBEL ([8]; Rate 0.0620 kg/ha): 8.5
- Preemergence herbicidal rating AMBEL ([8]; Rate 0.1250 kg/ha): 9.0
- Preemergence herbicidal rating AMBEL ([8]; Rate 0.2500 kg/ha): 9.0
- Preemergence herbicidal rating CASOB ([9]; Rate 0.0620 kg/ha): 2.5
- Preemergence herbicidal rating CASOB ([9]; Rate 0.1250 kg/ha): 6.0
- Preemergence herbicidal rating CASOB ([9]; Rate 0.2500 kg/ha): 8.0
- Preemergence herbicidal rating CHEAL ([10]; Rate 0.0620 kg/ha): 9.0
- Preemergence herbicidal rating CHEAL ([10]; Rate 0.1250 kg/ha): 9.0
- Preemergence herbicidal rating CHEAL ([10]; Rate 0.2500 kg/ha): 9.0
- Preemergence herbicidal rating GALAP (GALAP (Galium aparine) [11]; Rate 0.0620 kg/ha): 8.0
- Preemergence herbicidal rating GALAP (GALAP (Galium aparine) [11]; Rate 0.1250 kg/ha): 8.0
- Preemergence herbicidal rating GALAP (GALAP (Galium aparine) [11]; Rate 0.2500 kg/ha): 9.0
- Preemergence herbicidal rating ECHCG ([12]; Rate 0.0620 kg/ha): 7.5
- Preemergence herbicidal rating ECHCG ([12]; Rate 0.1250 kg/ha): 9.0
- Preemergence herbicidal rating ECHCG ([12]; Rate 0.2500 kg/ha): 9.0
- Preemergence herbicidal rating SETVI (SETVI (Setaria viridis) [13]; Rate 0.0620 kg/ha): 9.0
- Preemergence herbicidal rating SETVI (SETVI (Setaria viridis) [13]; Rate 0.1250 kg/ha): 9.0
- Preemergence herbicidal rating SETVI (SETVI (Setaria viridis) [13]; Rate 0.2500 kg/ha): 9.0
- Preemergence herbicidal rating ZEAMX (ZEAMX (Corn, Field); Rate 0.0620 kg/ha): 6.5
- Preemergence herbicidal rating ZEAMX (ZEAMX (Corn, Field); Rate 0.1250 kg/ha): 9.0
- Preemergence herbicidal rating ZEAMX (ZEAMX (Corn, Field); Rate 0.2500 kg/ha): 9.0
- herbicidal rating, MOOVA ([14]; rate 0.0080 kg/ha): 0.0
- herbicidal rating, MOOVA ([14]; rate 0.0320 kg/ha): 0.0
- herbicidal rating, MOOVA ([14]; rate 0.1250 kg/ha): 9.0
- herbicidal rating, ORYSAT (rice tolerance) (ORYSAT (Rice, Tebonnet); rate 0.0080 kg/ha): 0.0
- herbicidal rating, ORYSAT (rice tolerance) (ORYSAT (Rice, Tebonnet); rate 0.0320 kg/ha): 0.0
- herbicidal rating, ORYSAT (rice tolerance) (ORYSAT (Rice, Tebonnet); rate 0.1250 kg/ha): 5.0
